Values quoted from earlier work as cited in patent publication US20150164917A1 (VALPHARMA INTERNATIONAL S.P.A., priority 2012, published 2015).

Tested on: uterine fibrosis
Details: 5 mg daily oral for 6 months, compared with higher doses

In the case of `CC#C[C@]1(O)CC[C@H]2[C@@H]3CCC4=CC(=O)CCC4=C3[C@@H](c3ccc(N(C)C)cc3)C[C@@]21C` [Mifepristone], the “effects in the treatment of uterine fibrosis” value is given as “effects comparable with those of higher doses of Mifepristone”.
